According to US20240368163A1, “COMPOUNDS AND METHODS FOR MODULATING SPLICING” (REMIX THERAPEUTICS INC., priority 2021, published 2024):
Where two headings read alike, the source gives them in different places.

How the values were obtained:
Format in all cases: cell-based, human
[1] = system: MYB; experiment: HiBiT protein abundance assay, MYB; conditions: Homo sapiens, K562, 24 h, modified K562 cells
Method: (§1) Compounds described herein were used to screen for effects on quantitative protein abundance using a HiBit assay system (Promega). Quantitative protein abundance was determined by measuring the protein levels of HiBit-tagged protein targets expressed in cell culture via luminescence using the Nano-Glo HiBiT Lytic Detection System, which uses a split complementation assay format to reconstitute NanoBiT enzyme to generate a luminescent signal. A protein abundance assay was developed such that endogenous protein targets could be modified with the HiBiT peptide tag and their abundance could be assessed after compound treatment. Briefly, K562 cell lines containing a HiBiT-modification were treated with various compounds described herein (e.g., compounds of Formulas (I), (II), or (III)). After treatment for 24 hours, the protein abundance of a specific target was determined by measuring luminescence.
(§2) Cells were maintained in IMIDM with 10% FBS. Before the assay, cells were diluted with […] growth media (IMIDM+[…] media) and were seeded in a 384-well plate at a density of 10000 cells/well (for each cell line listed in Table 12). Each compound was prepared as a 10-point 3-fold serial dilution in DMSO with the top dose at a final concentration of 10 μM in the well. Unmodified K562 cells were added at the previously specified density with DMSO to serve as an assay baseline and positive control (PC) and DMSO only with the respective modified cell lines was added to the negative control (NC) columns. Final DMSO concentration was kept at or below 0.25%. Treated cell plates were placed in an incubator at 37° C. with 5% CO2 for 24 hours. After 24 hours, 25 μL of Complete HiBit Lytic reagent was added to each well at room temperature (e.g. one plate requiring 10 mL Lytic Buffer, 100 μL LgBiT Protein, 200 μL Lytic Substrate), shaken for 5 minutes at 600 RPM, then left to sit for 10 minutes for signal to stabilize before reading on a Spark Cyto plate reader (Tecan) with a 500 ms measurement time.
(§3) To determine compound effects on protein abundance of each target in Table 12, the percent response for each respective cell line was calculated at each compound concentration as follows:
(§4) For the normalized response at each concentration, a four-parameter logistical regression was fit to the data and the response was interpolated at the 50% value to determine a concentration for protein abundance at 50% (IC50) the untreated control.

[2] = system: MYB; experiment: Splicing RT-qPCR assay, MYB mRNA canonical junction (CJ) and alternative junction (AJ); conditions: Homo sapiens; for AC50: increase in AJ mRNA
Method: (§5) Compounds described herein were used to modulate RNA transcript abundance in cells. The expression of a target mRNA was measured by detecting the formation of an exon-exon junction in the canonical transcript (CJ). A compound mediated exon-inclusion event was detected by observing an increase in formation of a new junction with an alternative exon (AJ). Real-time qPCR assays were used to detect these splicing switches and interrogate the potency of various compounds towards different target genes. A high-throughput real time quantitative PCR (RT-qPCR) assay was developed to measure these two isoforms of the mRNA (CJ and AJ) for exemplary genes, such as HTT, SMN2, and MYB, together with a control housekeeping gene, GAPDH or GUSB or PPIA, used for normalization. Briefly, the A673 or K562 cell line was treated with various compounds described herein (e.g., compounds of Formula (I)). After treatment, the levels of the HTT, MYB, or SMN2 mRNA targets were determined from each sample of cell lysate by cDNA synthesis followed by qPCR.
(§6) The A673 cell line was cultured in DMEM with 10% FBS. Cells were diluted with full growth media and plated in a 96-well plate (15,000 cells in 100 ul media per well). The plate was incubated at 37° C. with 5% CO2 for 24 hours to allow cells to adhere. An 11-point 3-fold serial dilution of the compounds was made in DMSO then diluted in media in an intermediate plate. Compounds were transferred from the intermediate plate to the cell plate with the top dose at a final concentration of 10 uM in the well. Final DMSO concentration was kept at or below 0.25%. The cell plate was returned to the incubator at 37° C. with 5% CO2 for an additional 24 hours.
(§7) The K562 cell line was cultured in IMDM with 10% FBS. For K562, cells were diluted with full growth media and plated in either a 96-well plate (50,000 cells in 50 uL media per well) or a 384-well plate (8,000-40,000 cells in 45 uL media per well). An 11-point 3-fold serial dilution of the compounds were made in DMSO then diluted in media in an intermediate plate. Compound was transferred from the intermediate plate to the cell plate with the top dose at a final concentration of 10 uM in the well. Final DMSO concentration was kept at or below 0.25%. Final volume was 100 uL for 96-well plate and 50 uL for 384-well plate. The cell plate was then placed in an incubator at 37° C. with 5% CO2 for 24 hours.
(§8) The cells were then gently washed with 50 uL-100 uL cold PBS before proceeding to addition of lysis buffer. 30 uL-50 μL of room temperature lysis buffer with DNAse I (and optionally RNAsin) was added to each well. Cells were shaken/mixed thoroughly at room temperature for 5-10 minutes for lysis to take place and then 3 uL-5 μL of room temperature stop solution was added and wells were shaken/mixed again. After 2-5 minutes, the cell lysate plate was transferred to ice for RT-qPCR reaction setup. The lysates could also be frozen at −80° C. for later use.
(§9) In some cases, a direct lysis buffer was used. An appropriate volume of 3× lysis buffer (10 mM Tris, 150 mM NaCl, 1.5%-2.5% Igepal and 0.1-1 U/uL RNAsin, pH 7.4) was directly added to either K562 or A673 cells in media and mixed by pipetting 3 times. The plates were then incubated at room temperature with shaking/rocking for 20-50 minutes to allow for lysis to take place. After this time, the cell lysate plate was transferred to ice to set up for the RT-qPCR reactions. The lysates could also be frozen at −80° C. for later use.
(§10) To set up 10 uL RT-qPCR reactions, cell lysates were transferred to 384-well qPCR plates containing the master mix according to the table below. The plates were sealed, gently vortexed, and spun down before the run. The volumes were adjusted accordingly in some instances where the reaction was carried in 20 μL. The table below summarizes the components of the RT-qPCR reactions:
(§11) The RT-qPCR reaction was performed using a QuantStudio (ThermoFisher) under the following fast cycling conditions. […]

[3] = system: HTT; experiment: HiBiT protein abundance assay, HTT; conditions: Homo sapiens, K562, 24 h, modified K562 cells
Method: as §1, §2, §3, §4

[4] = system: Target C; experiment: HiBiT protein abundance assay, Target C; conditions: Homo sapiens, K562, 24 h, modified K562 cells
Method: • Promega Nano-Glo HiBiT Lytic Detection System (cat #N3030) • Coming 384-well TC-treated microplates (cat #3570) • Synthego Engineered Cells Knock-In Clones
as §2, §3, §4

[5] = system: Target C; experiment: Splicing RT-qPCR panel, Target C canonical junction (CJ) mRNA; conditions: Homo sapiens, read-out: Target C IC50 (decrease in CJ mRNA levels)
Method: as §5, §6, §7, §8, §9, §10, §11

[6] = system: HTT; experiment: Splicing RT-qPCR assay, HTT mRNA canonical junction (CJ) and alternative junction (AJ); conditions: Homo sapiens; for AC50: increase in AJ mRNA
Method: as §5, §6, §7, §8, §9, §10, §11

[7] = system: SMN2; experiment: Splicing RT-qPCR panel, SMN2 canonical junction (CJ) mRNA; conditions: Homo sapiens, read-out: SMN2 IC50 (decrease in CJ mRNA levels)
Method: as §5, §6, §7, §8, §9, §10, §11

[8] = RT-qPCR panel, canonical junction mRNA, compound concentration having 50% response in CJ decrease, read-out: MYB IC50 (decrease in CJ mRNA levels)
[9] = RT-qPCR panel, canonical junction mRNA, compound concentration having 50% response in CJ decrease
[10] = RT-qPCR panel, canonical junction mRNA, compound concentration having 50% response in CJ decrease, read-out: HTT IC50 (decrease in CJ mRNA levels)
[11] = gene panel, CJ qPCR, protocol of Example 142, read-out: MYB IC50 (decrease in CJ mRNA levels)
[12] = gene panel, CJ qPCR, protocol of Example 142
[13] = gene panel, CJ qPCR, protocol of Example 142, read-out: HTT IC50 (decrease in CJ mRNA levels)
[14] = 24 h, decrease in CJ mRNA, A673 or K562 cells, 24 hours treatment, RT-qPCR, read-out: MYB CJ IC50
[15] = 24 h, A673 or K562 cells, 24 hours treatment, RT-qPCR
[16] = 24 h, decrease in CJ mRNA, A673 or K562 cells, 24 hours treatment, RT-qPCR, read-out: HTT CJ IC50

| SMILES | IC50 ([1]; Table 13A) [µM] | IC50 [2, 8] [µM] | IC50 ([3]; Table 13A) [µM] | IC50 ([4]; Table 13A) [µM] | IC50 [5, 9] [µM] | IC50 [6, 10] [µM] | IC50 [7, 9] [µM] | IC50 [2, 14] [µM] | IC50 [6, 16] [µM] | IC50 ([1]; Table 13B) [µM] | IC50 [2, 11] [µM] | IC50 ([3]; Table 13B) [µM] | IC50 ([4]; Table 13B) [µM] | IC50 [5, 12] [µM] | IC50 [6, 13] [µM] | IC50 [7, 12] [µM] | AC50 [2, 15] [µM] | AC50 [6, 15] [µM] |
| --- | --- | --- | --- | --- | --- | --- | --- | --- | --- | --- | --- | --- | --- | --- | --- | --- | --- | --- |
| COc1nc(-c2ccc(N(C)[C@@H]3C[C@H]4CC[C@@H](C3)N4)cn2)ccc1-c1cn[nH]c1 [Compound 978] |  |  |  |  |  |  |  |  |  | 1 to 10 | > 10 | 1 to 10 | > 10 | > 10 | > 10 | > 10 |  |  |
| COc1nc(-c2ccc(NC3CCNCC3)nn2)ccc1-n1cccn1 [Compound 941] |  |  |  |  |  |  |  |  |  | > 10 | > 10 | > 10 | > 10 | > 10 | > 10 | 1 to 10 |  |  |
| CN(c1ccc(-c2ccc(-n3cccn3)c3nc[nH]c23)nn1)[C@@H]1C[C@H]2CC[C@@H](C1)N2 [Compound 170] | 1 to 10 | 1 to 10 | 1 to 10 | > 10 | > 10 | 1 to 10 | 0.1 to 1 | 1 to 10 | 1 to 10 |  |  |  |  |  |  |  | 1 to 10 | 1 to 10 |

The next lines start with results.

| IC50 ([1]; Table 13A) [µM] | IC50 [2, 8] [µM] | IC50 ([3]; Table 13A) [µM] | IC50 ([4]; Table 13A) [µM] | IC50 [5, 9] [µM] | IC50 [6, 10] [µM] | IC50 [7, 9] [µM] | IC50 [2, 14] [µM] | IC50 [6, 16] [µM] | SMILES | IC50 ([1]; Table 13B) [µM] | IC50 [2, 11] [µM] | IC50 ([3]; Table 13B) [µM] | IC50 ([4]; Table 13B) [µM] | IC50 [5, 12] [µM] | IC50 [6, 13] [µM] | IC50 [7, 12] [µM] | AC50 [2, 15] [µM] | AC50 [6, 15] [µM] |
| --- | --- | --- | --- | --- | --- | --- | --- | --- | --- | --- | --- | --- | --- | --- | --- | --- | --- | --- |
| 1 to 10 | > 10 | 0.1 to 1 | 1 to 10 | 1 to 10 | 0.1 to 1 | 1 to 10 |  |  | C[C@H]1CN(c2ncc(-c3ccc(-c4cn[nH]c4)c4ncsc34)nn2)C[C@@H](C2CC2)N1 [Compound 568] |  |  |  |  |  |  |  |  |  |
| 1 to 10 | > 10 | > 10 | 1 to 10 | > 10 | > 10 | > 10 | > 10 | > 10 | c1nc2c(-c3cn[nH]c3)ccc(-c3ccc(N4CCC45CCNC5)nn3)c2s1 (stereo not drawn) [Compound 277] |  |  |  |  |  |  |  | > 10 | > 10 |
| > 10 | > 10 | > 10 | > 10 | > 10 | > 10 | 0.1 to 1 | > 10 | > 10 | c1n[nH]cc1-c1ccc(-c2ccc(N3C[C@H]4CNC[C@H]4C3)nn2)c2[nH]ncc12 [Compound 254] |  |  |  |  |  |  |  | 1 to 10 | > 10 |
